US20210338782A1, “STORAGE STABLE SOMATOSTATIN-DOPAMINE CHIMERIC COMPOUNDS AND SALT FORMS THEREOF” (Cydan II, Inc., priority 2019, published 2021)
Where a name gives a salt, the structure may show the parent alone.

Experiments:
Format in all cases: physicochemical
[1] = Photostability of TBR-760 salt forms (ICH Q1B, visible and UV light), appearance and UPLC purity; conditions: for Purity, UV-exposed / Purity, Control / Purity, Dark Ctrl-UV / Purity, Dark Crtl-Light / Purity, Light-exposed / degradation upon exposure to visible or UV light, in words: UPLC; for Purity, UV-exposed / Appearance, UV-exposed: UV 200 watt hours/square meter; for Purity, UV-exposed / Purity, Light-exposed / Appearance, UV-exposed / Appearance, Light-exposed: clear sealed vial; for Purity, Control / Appearance, Control: control in sealed amber vial at -20° C.; for Purity, Dark Ctrl-UV / Appearance, Dark Ctrl-UV: dark control in UV chamber; for Purity, Dark Crtl-Light / Appearance, Dark Crtl-Light: dark control in visible light chamber; for Appearance, Dark Ctrl-UV / Appearance, Dark Crtl-Light: amber vial wrapped in aluminum foil; for degradation upon exposure to visible or UV light, in words: visible and UV light
Excerpt: In order to evaluate the light sensitivity and stability of TBR-760 chimeric peptide salts, all five salt forms were exposed to ultraviolet (UV) and visible light according to International Council for Harmonisation of Technical Requirements for Pharmaceuticals for Human Use (ICH) guideline Q1B for photostability testing. In brief, a Caron 6540-1 photostability chamber unit with separate UV and light chambers was used for the studies. Visible light exposure was 1.2 million lux hours and UV exposure was 200 watt hours/square meter.
Samples were placed in clear, sealed vials and stored in the appropriate chamber alongside dark controls in amber colored vials wrapped in aluminum foil. Control samples were stored in sealed amber vials at −20° C. The appearance of exposed samples was examined visually before being analyzed via UPLC.

[2] = Solid state (thermolytic) stability of TBR-760 salt forms, open container, UPLC peak purity and appearance; conditions: for Purity, T = 2 wk / Purity, T = 4 wk / Purity, Control: UPLC peak purity; for Purity, Control / Appearance, Control: stored at -20° C.
Description: Each TBR-760 salt was further evaluated for thermolytic stability over time by setting up three different exposure conditions (25° C. at 60% relative humidity (RH); 40° C. at 75% RH; or 60° C. with open and closed container systems (open dish/closed dish). Approximately 50 mg of each salt form was weighed in a nitrogen-flushed glove box for use in the studies. All samples were stored at −20° C. in a good laboratory practice (GLP) freezer both before and after exposure to the indicated conditions.
The stability of each salt form was assessed by monitoring the post-exposure drug peak purity and by evaluating the post-exposure visual appearance of the salt. The samples were removed from the exposure conditions and allowed to equilibrate to ambient conditions for 15-20 mins. An appropriate amount of each sample was weighed for analysis and dissolved in diluent (deionized water containing 0.1% TFA) to obtain a stock concentration of 1 mg/mL. The stock solution was then diluted to 0.125 mg/mL in an HPLC vial using diluent and the samples were run on a Waters Acquity UPLC system using the parameters shown in Table 4.

[3] = Thermogravimetric analysis (TGA) of TBR-760 salt forms; conditions: ramp 5.0° C. per minute from 25 to 400° C.
Description: Thermogravimetric analyses (TGA) were performed on all TBR-760 salt forms to evaluate thermal stability of each salt form. Studies were performed using a TGA-Q500 thermogravimetric analyzer (TA Instruments). The weight of each compound was measured while the temperature was increased at a ramp rate of 5.0° C. per minute from 25 to 400° C. […] The weight loss may be indicative of loss of adsorbed moisture, entrained solvent or volatile impurities. Decomposition of the compound appears to start at about 234° C. (sulfate salt), 245° C. (chloride salt), 252° C. (tosylate salt), and 255° C. (mesylate salt). For the acetate salt, a further ˜5% loss of weight between 110° C. and 200° C. was observed, indicating loss of volatile acetate ions over that temperature range (FIG. 8).

[4] = visible light 1.2 million lux hours
[5] = 25° C. at 60% RH, open container
[6] = 40° C. at 75% RH, open container
[7] = visible light 1.2 million lux hours, listed as Sulphate

SMILES | Appearance, Control [1] | Appearance, Dark Ctrl-UV [1] | Appearance, Dark Crtl-Light [1] | degradation upon exposure to visible or UV light, in words [1] | Appearance, T = 2 wk [2, 5] | Appearance, T = 4 wk [2, 5] | Appearance, T = 3 d [2, 5] | Appearance, T = 2 wk [2, 6] | Appearance, T = 4 wk [2, 6] | Appearance, T = 3 d [2, 6] | Appearance, T = 2 wk ([2]; 60° C., open dish) | Appearance, T = 4 wk ([2]; 60° C., open dish) | Appearance, T = 3 d ([2]; 60° C., open dish) | Purity, T = 2 wk [2, 5] | Purity, T = 4 wk [2, 5] | Purity, T = 2 wk [2, 6] | Purity, T = 4 wk [2, 6] | Purity, T = 2 wk ([2]; 60° C., open dish) | Purity, T = 4 wk ([2]; 60° C., open dish) | Purity, Control [2] | further results
CCCN1C[C@H](CSCC(=O)NCCCC[C@@H](NC(=O)CSC[C@@H]2C[C@@H]3c4cccc5[nH]cc(c45)C[C@H]3N(CCC)C2)C(=O)N[C@H]2CSSC[C@@H](C(=O)N[C@H](C(N)=O)[C@@H](C)O)NC(=O)[C@H](CC)NC(=O)[C@H](CCCCN)NC(=O)[C@@H](Cc3c[nH]c4ccccc34)NC(=O)[C@H](Cc3ccc(O)cc3)NC2=O)C[C@@H]2c3cccc4[nH]cc(c34)C[C@H]21 [TBR-760 tosylate, Dop2-D-Lys(Dop2)-cyclo[Cys-Tyr-D-Trp-Lys-Abu-Cys]-Thr-NH2] | white | white | white | more resistant to degradation than TBR-760 acetate | White | White | White | White | White | White | White | White | White | 98.01 | 97.39 | 97.57 | 96.93 | 96.86 | 96.52 | 98.39 | Purity, UV-exposed [1]: 95.67; Purity, Control [1]: 98.39; Purity, Dark Ctrl-UV [1]: 98.27; Purity, Dark Crtl-Light [1]: 98.27; Purity, Light-exposed [1, 4]: 96.3; Appearance, UV-exposed ([1]; listed as Tosylate): off-white; Appearance, UV-exposed ([1]; listed as tosylate): white to off-white; stability following light exposure, in words [1, 4]: significantly more stable than the TBR-760 acetate salt; Appearance, Light-exposed ([1]; visible light 1.2 million lux hours, listed as Tosylate): off-white; Appearance, Light-exposed ([1]; visible light 1.2 million lux hours, listed as tosylate): white to off-white; Appearance, Control [2]: White; TGA start of decomposition ([3]; listed as tosylate salt): ~252 °C
CCCN1C[C@H](CSCC(=O)NCCCC[C@@H](NC(=O)CSC[C@@H]2C[C@@H]3c4cccc5[nH]cc(c45)C[C@H]3N(CCC)C2)C(=O)N[C@H]2CSSC[C@@H](C(=O)N[C@H](C(N)=O)[C@@H](C)O)NC(=O)[C@H](CC)NC(=O)[C@H](CCCCN)NC(=O)[C@@H](Cc3c[nH]c4ccccc34)NC(=O)[C@H](Cc3ccc(O)cc3)NC2=O)C[C@@H]2c3cccc4[nH]cc(c34)C[C@H]21 [TBR-760 sulfate, Dop2-D-Lys(Dop2)-cyclo[Cys-Tyr-D-Trp-Lys-Abu-Cys]-Thr-NH2] | white | white | white | more resistant to degradation than TBR-760 acetate | White | White | White | White | White | White | White | White | White | 97.34 | 97.75 | 97.08 | 97.3 | 93.7 | 92.01 | 98.04 | Purity, UV-exposed ([1]; listed as Sulphate): 96.24; Purity, Control ([1]; listed as Sulphate): 98.04; Purity, Dark Ctrl-UV ([1]; listed as Sulphate): 98.17; Purity, Dark Crtl-Light ([1]; listed as Sulphate): 98.19; Purity, Light-exposed [1, 7]: 94.82; Appearance, UV-exposed [1]: white to off-white; Appearance, UV-exposed ([1]; listed as Sulphate): off-white; Appearance, Light-exposed [1, 4]: no visible discoloration; Appearance, Light-exposed [1, 7]: white; Appearance, Control [2]: White; additional degradants in chromatogram versus control ([2]; two weeks at 60° C., open dish, UPLC, listed as sulfate salt): more than 10; TGA start of decomposition ([3]; listed as sulfate salt): about 234 °C
